# According to ChEMBL document CHEMBL3763064, “Discovery of silyl proline containing HCV NS5A inhibitors with pan-genotype activity: SAR development” (Bioorg Med Chem Lett, 2016):
# What was measured:
# [1] = tested on: Hepatitis C virus; assay: Antiviral activity against HCV genotype 1a by replicon assay; type: functional, organism-based, Hepacivirus hominis; conditions: subtype 1a
# [2] = tested on: Hepatitis C virus; assay: Antiviral activity against HCV genotype 1a expressing NS5A Y93H mutant by replicon assay; type: functional, organism-based, Hepacivirus hominis; conditions: subtype 1a
# [3] = tested on: Hepatitis C virus; assay: Antiviral activity against HCV genotype 3a by replicon assay; type: functional, organism-based, Hepacivirus hominis
# [4] = tested on: Hepatitis C virus; assay: Antiviral activity against HCV genotype 2a by replicon assay; type: functional, organism-based, Hepacivirus hominis
# [5] = tested on: Hepatitis C virus; assay: Antiviral activity against HCV genotype 1b by replicon assay; type: functional, organism-based, Hepacivirus hominis
# [6] = tested on: Rattus norvegicus; assay: AUC in Sprague-Dawley rat at 5 mg/kg, po; type: ADME, organism-based; conditions: in vivo
# [7] = Half life in iv dosed Sprague-Dawley rat; type: ADME, organism-based; conditions: in vivo
SMILES,EC50 [1],EC50 [2],EC50 [3],EC50 [4],EC50 [5],AUC [6],half-life [7]
COC(=O)N[C@H](C(=O)N1CCC[C@H]1c1ncc(-c2ccc(-c3ccc4c(ccc5nc([C@@H]6C[Si](C)(C)CN6C(=O)[C@@H](NC(=O)OC)C6CC6)[nH]c54)c3)cc2)[nH]1)C(C)C,0.05 nM,87 nM,,,,,
COC(=O)N[C@H](C(=O)N1CCC[C@H]1c1ncc(-c2ccc(-c3ccc4c(ccc5nc([C@@H]6C[Si](C)(C)CN6C(=O)[C@@H](NC(=O)OC)C(C)C)[nH]c54)c3)cc2)[nH]1)C(C)C,0.003 nM,35 nM,0.26 nM,0.004 nM,0.004 nM,3.2 uM.hr/ml,6.6 h
COC(=O)N[C@H](C(=O)N1C[Si](C)(C)C[C@H]1c1ncc(-c2ccc(-c3ccc4c(ccc5nc([C@@H]6CCCN6C(=O)[C@@H](NC(=O)OC)C(C)C)[nH]c54)c3)s2)[nH]1)C(C)C,0.14 nM,921 nM,,,0.004 nM,,
COC(=O)N[C@H](C(=O)N1C[C@H](F)C[C@H]1c1ncc(-c2ccc(-c3ccc4c(ccc5nc([C@@H]6C[Si](C)(C)CN6C(=O)[C@@H](NC(=O)OC)C(C)C)[nH]c54)c3)cc2)[nH]1)C(C)C,0.07 nM,27 nM,,,0.006 nM,,
COC(=O)N[C@H](C(=O)N1C[Si](C)(C)C[C@H]1c1nc2ccc3cc(-c4ccc(-c5cnc([C@@H]6CCCN6C(=O)[C@@H](NC(=O)OC)C6CC6)[nH]5)cc4)ccc3c2[nH]1)C(C)C,0.08 nM,260 nM,,,,,
COC(=O)N[C@H](C(=O)N1CCC[C@H]1c1ncc(-c2ccc(-c3ccc(-c4cnc([C@@H]5CCCN5C(=O)[C@@H](NC(=O)OC)C(C)C)[nH]4)cc3)cc2)[nH]1)C(C)C,,198 nM,0.7 nM,0.04 nM,0.01 nM,,
COC(=O)N[C@H](C(=O)N1C[Si](C)(C)C[C@H]1c1nc2ccc3cc(-c4ccc(-c5cnc([C@@H]6[C@@H]7C[C@@H](C(F)C7F)N6C(=O)[C@@H](NC(=O)OC)C(C)C)[nH]5)cc4)ccc3c2[nH]1)C(C)C (stereo not given in full),0.04 nM,204 nM,,,0.002 nM,,
COC(=O)N[C@H](C(=O)N1C[C@H](O)C[C@H]1c1ncc(-c2ccc(-c3ccc4c(ccc5nc([C@@H]6C[Si](C)(C)CN6C(=O)[C@@H](NC(=O)OC)C(C)C)[nH]c54)c3)cc2)[nH]1)C(C)C,0.06 nM,44 nM,,,0.005 nM,,
COC(=O)N[C@H](C(=O)N1C[Si](C)(C)C[C@H]1c1ncc(-c2ccc(-c3ccc4nc([C@@H]5CCCN5C(=O)[C@@H](NC(=O)OC)C(C)C)[nH]c4c3)cc2)[nH]1)C(C)C,> 1 nM,9920 nM,,,0.004 nM,,
COC(=O)N[C@H](C(=O)N1CCS(=O)(=O)C[C@H]1c1ncc(-c2ccc(-c3ccc4c(ccc5nc([C@@H]6C[Si](C)(C)CN6C(=O)[C@@H](NC(=O)OC)C(C)C)[nH]c54)c3)cc2)[nH]1)C(C)C,0.2 nM,380 nM,,,0.01 nM,,
COC(=O)N[C@H](C(=O)N1CCC[C@H]1c1ncc(-c2ccc(-c3ccc4c(ccc5nc([C@@H]6C[Si](C)(C)CN6C(=O)[C@@H](NC(=O)OC)C(C)O)[nH]c54)c3)cc2)[nH]1)C(C)C (stereo not given in full),0.6 nM,> 1000 nM,,,,,
COC(=O)N[C@H](C(=O)N1C[Si](C)(C)C[C@H]1c1nc2ccc3cc(-c4ccc(-c5cnc([C@@H]6CCCN6C(=O)[C@@H](NC(=O)OC)C(C)O)[nH]5)cc4)ccc3c2[nH]1)C(C)C (stereo not given in full),0.14 nM,579 nM,,,,,
COC(=O)N[C@H](C(=O)N1C[Si](C)(C)C[C@H]1c1ncc(-c2ccc(-c3cc4c(ccc5nc([C@@H]6CCCN6C(=O)[C@@H](NC(=O)OC)C(C)C)[nH]c54)s3)cc2)[nH]1)C(C)C,> 1 nM,2330 nM,,,0.006 nM,,
COC(=O)N[C@H](C(=O)N1C[Si](C)(C)C[C@H]1c1ncc(-c2ccc(-c3ccc4c(ccc5nc([C@@H]6CCCN6C(=O)[C@@H](NC(=O)OC)C(C)C)[nH]c54)c3)cc2-c2cccs2)[nH]1)C(C)C,0.5 nM,1150 nM,,,,,
COC(=O)N[C@H](C(=O)N1C[Si](C)(C)C[C@H]1c1ncc(-c2ccc(-c3ccc4c(ccc5nc([C@@H]6CCCN6C(=O)[C@@H](NC(=O)OC)C(C)C)[nH]c54)c3)cc2F)[nH]1)C(C)C,0.05 nM,329 nM,,,,,
COC(=O)N[C@H](C(=O)N1CCC[C@H]1c1ncc(-c2ccc(-c3ccc4c(ccc5nc([C@@H]6C[Si](C)(C)CN6C(=O)[C@@H](NC(=O)OC)C6CCCC6)[nH]c54)c3)cc2)[nH]1)C(C)C,0.09 nM,471 nM,,,,,
COC(=O)N[C@H](C(=O)N1C[Si](C)(C)C[C@H]1c1ncc(-c2ccc(-c3ccc4c(ccc5nc([C@@H]6CCCN6C(=O)[C@@H](NC(=O)OC)C(C)C)[nH]c54)c3)cc2OC)[nH]1)C(C)C,0.27 nM,497 nM,,,,,
COC(=O)N[C@H](C(=O)N1C[Si](C)(C)C[C@H]1c1nc2ccc3cc(-c4ccc(-c5cnc([C@@H]6CCCN6C(=O)[C@@H](NC(=O)OC)C6CCCC6)[nH]5)cc4)ccc3c2[nH]1)C(C)C,0.2 nM,590 nM,,,,,

SMILES,EC50 [1],EC50 [2],EC50 [3],EC50 [4],EC50 [5],AUC [6],half-life [7]
CCC(C)[C@H](NC(=O)OC)C(=O)N1C[Si](C)(C)C[C@H]1c1nc2ccc3cc(-c4ccc(-c5cnc([C@@H]6CCCN6C(=O)[C@@H](NC(=O)OC)C(C)C)[nH]5)cc4)ccc3c2[nH]1 (stereo not given in full),0.08 nM,279 nM,,,,,
COC(=O)N[C@H](C(=O)N1C[Si](C)(C)C[C@H]1c1ncc(-c2ccc(-c3ccc4c(ccc5nc([C@@H]6C[C@@H](F)CN6C(=O)[C@@H](NC(=O)OC)C(C)C)[nH]c54)c3)cc2)[nH]1)C(C)C,0.02 nM,10 nM,,,0.003 nM,,
COC(=O)N[C@H](C(=O)N1CCC[C@H]1c1ncc(-c2ccc(-c3ccc4c(ccc5nc([C@@H]6C[Si](C)(C)CN6C(=O)[C@@H](NC(=O)OC)C(C)OC)[nH]c54)c3)cc2)[nH]1)C(C)C (stereo not given in full),0.03 nM,275 nM,,,,,
CCC(C)[C@H](NC(=O)OC)C(=O)N1CCC[C@H]1c1ncc(-c2ccc(-c3ccc4c(ccc5nc([C@@H]6C[Si](C)(C)CN6C(=O)[C@@H](NC(=O)OC)C(C)C)[nH]c54)c3)cc2)[nH]1 (stereo not given in full),0.15 nM,640 nM,,,,,
COC(=O)N[C@H](C(=O)N1C[Si](C)(C)C[C@H]1c1ncc(-c2ccc(-c3ccc(-c4cnc([C@@H]5C[Si](C)(C)CN5C(=O)[C@@H](NC(=O)OC)C(C)C)[nH]4)cc3)cc2)[nH]1)C(C)C,0.2 nM,> 1000 nM,4.1 nM,0.25 nM,0.01 nM,,
COC(=O)N[C@H](C(=O)N1CC(F)(F)C[C@H]1c1ncc(-c2ccc(-c3ccc4c(ccc5nc([C@@H]6C[Si](C)(C)CN6C(=O)[C@@H](NC(=O)OC)C(C)C)[nH]c54)c3)cc2)[nH]1)C(C)C,0.015 nM,46 nM,,,,5 uM.hr/ml,
COC(=O)N[C@H](C(=O)N1CCC(F)(F)C[C@H]1c1ncc(-c2ccc(-c3ccc4c(ccc5nc([C@@H]6C[Si](C)(C)CN6C(=O)[C@@H](NC(=O)OC)C(C)C)[nH]c54)c3)cc2)[nH]1)C(C)C,0.1 nM,728 nM,,,,,
COC(=O)N[C@H](C(=O)N1C[Si]2(CCCC2)C[C@H]1c1ncc(-c2ccc(-c3ccc4c(ccc5nc([C@@H]6CCCN6C(=O)[C@@H](NC(=O)OC)C(C)C)[nH]c54)c3)cc2)[nH]1)C(C)C,0.06 nM,350 nM,0.2 nM,0.01 nM,,,
COC(=O)N[C@H](C(=O)N1C[Si](C)(C)C[C@H]1c1nc2ccc3cc(-c4ccc(-c5cnc([C@@H]6CCCN6C(=O)[C@@H](NC(=O)OC)C(C)OC)[nH]5)cc4)ccc3c2[nH]1)C(C)C (stereo not given in full),0.07 nM,225 nM,,,,,
COC(=O)N[C@H](C(=O)N1C[Si](C)(C)C[C@H]1c1ncc(-c2ccc(-c3ccc4c(ccc5nc([C@@H]6CCCN6C(=O)[C@@H](NC(=O)OC)C(C)C)[nH]c54)c3)cc2)[nH]1)C(C)C,0.014 nM,95 nM,0.05 nM,0.02 nM,0.003 nM,,
COC(=O)N[C@H](C(=O)N1CCC[C@H]1c1ncc(-c2ccc(-c3cc4cc(-c5cnc([C@@H]6C[Si](C)(C)CN6C(=O)[C@@H](NC(=O)OC)C(C)C)[nH]5)ccc4o3)cc2)[nH]1)C(C)C,0.04 nM,153 nM,15 nM,2.4 nM,0.003 nM,,
COC(=O)N[C@H](C(=O)N1CC(C)(C)C[C@H]1c1ncc(-c2ccc(-c3ccc4c(ccc5nc([C@@H]6C[Si](C)(C)CN6C(=O)[C@@H](NC(=O)OC)C(C)C)[nH]c54)c3)cc2)[nH]1)C(C)C,0.015 nM,90 nM,,,0.003 nM,,
COC(=O)N[C@H](C(=O)N1C[Si](C)(C)C[C@H]1c1ncc(-c2ccc(-c3ccc4c(ccc5nc([C@@H]6CC(F)(F)CN6C(=O)[C@@H](NC(=O)OC)C(C)C)[nH]c54)c3)cc2)[nH]1)C(C)C,,65 nM,,,,7.6 uM.hr/ml,6.7 h
COC(=O)N[C@H](C(=O)N1C[Si](C)(C)C[C@H]1c1nc2ccc3cc(-c4ccc(-c5cnc([C@@H]6[C@H]7CC[C@H](C7)N6C(=O)[C@@H](NC(=O)OC)C(C)C)[nH]5)cc4)ccc3c2[nH]1)C(C)C,0.09 nM,131 nM,,,0.01 nM,,
COC(=O)N[C@H](C(=O)N1C[Si](C)(C)C[C@H]1c1ncc(-c2ccc(-c3ccc4c(ccc5nc([C@@H]6CCCN6C(=O)[C@@H](NC(=O)OC)C(C)C)[nH]c54)c3)cc2C2CC2)[nH]1)C(C)C,0.43 nM,1600 nM,,,,,
COC(=O)N[C@H](C(=O)N1CCC[C@H]1c1ncc(-c2ccc(-c3ccc(-c4cnc([C@@H]5C[Si](C)(C)CN5C(=O)[C@@H](NC(=O)OC)C(C)C)[nH]4)cc3)cc2)[nH]1)C(C)C,0.04 nM,92 nM,0.5 nM,0.04 nM,0.003 nM,,
COC(=O)N[C@H](C(=O)N1C[Si](C)(C)C[C@H]1c1ncc(-c2ccc(-c3ccc4c(ccc5nc([C@@H]6CCCN6C(=O)[C@@H](NC(=O)OC)C(C)C)[nH]c54)c3)nc2)[nH]1)C(C)C,0.04 nM,185 nM,,,0.014 nM,,
COC(=O)N[C@H](C(=O)N1C[Si](C)(C)C[C@H]1c1nc2ccc3cc(-c4ccc(-c5cnc([C@@H]6C[C@H]7C[C@H]7N6C(=O)[C@@H](NC(=O)OC)C(C)C)[nH]5)cc4)ccc3c2[nH]1)C(C)C,,30 nM,,,,,
